Laboratory results taken from publication PMC9180170, “Amentoflavone Promotes Cellular Uptake and Degradation of Amyloid-Beta in Neuronal Cells” (International Journal of Molecular Sciences, 2022).

Tests used:
N2a cells [1] = assay: Aβ uptake assay with pharmacologic inhibitors of endocytosis; assay type: cell-based, mouse; settings: for effect on TAMRA-Aβ1-40 uptake with or without AMF (in words): in the presence or absence of 10 μM AMF, heparin 20 U/mL, cytochalasin D 0.4 or 2 μg/mL
Experimental: (§1) The Aβ uptake assay was performed as described, with modifications. N2a cells were seeded in a 24-well culture plate (2 × 10^5 cells/well) the day prior to the experiments. The next day (cell density at near confluency), cells were rinsed twice with warmed (37 °C) DMEM and incubated in DMEM containing 0.1% bovine serum albumin, 200 nM fluorescently labeled Aβ in the presence or absence of various concentrations of test compounds in a final volume of 200 µL. Cells were then incubated at 37 °C for three hours in the humidified CO2 incubator. The culture plate was placed on ice and the reaction medium was collected in a 1.5-mL microcentrifuge tube. Cells were rinsed twice with phosphate-buffered saline (PBS) containing 137 mM NaCl, 2.7 mM KCl, 10 mM Na2HPO4, and 1.8 mM KH2PO4 (pH: 7.4). To cleave cell surface-bound Aβ and extracellular matrix proteins, cells were treated with 0.05% trypsin in 200 µL PBS at room temperature on an orbital shaker for 5 min. Detached cells were transferred to a microcentrifuge tube and centrifuged at 5000× g for 5 min using a bench-top centrifuge (Thermo Fisher Scientific, Waltham, MA, USA). The supernatant and cell pellet were separated and kept at −80 °C until analysis. Cells were lysed in a buffer containing 20 mM HEPES (pH 7.4), 7.5 mM MgCl2, 1% sodium dodecyl sulfate, 1% Triton X-100, and Complete protease inhibitor cocktail (Sigma-Aldrich, St. Louis, MO, USA). The cell lysate was centrifuged at 10,000× g at 4 °C for 10 min. The fluorescent intensity was measured at λEX = 490 and λEM = 520 for FAM, and λEX = 545 and λEM = 575 for TAMRA using a Biotek Synergy HT plate reader (Winooski, VT). Protein concentrations of the cell lysates were determined using a BCA assay kit (Sigma-Aldrich, St. Louis, MO, USA). The fluorescent intensity of each sample was used to calculate an amount of Aβ in pmole and normalized to protein content. Cellular uptake of Aβ was expressed as pmole/mg protein.
To examine the role of receptor-mediated endocytosis on AMF-induced promotion of Aβ1-40 uptake, we performed the Aβ uptake assay utilizing pharmacologic inhibitors of endocytosis. […] Thirty minutes later, cells were subjected to the Aβ uptake assay with or without 10 μM AMF as described above.

N2a cells [2] = assay: Aβ uptake assay with fluorescently labeled Aβ in N2a cells; assay type: cell-based, mouse; settings: for effect on cellular uptake of TAMRA-Aβ1-40 (in words): 200 nM TAMRA-Aβ1-40, various concentrations of compound; for increase in Aβ1-40 uptake: fluorometry
Experimental: Fluorescent conjugated Aβ peptides were ≥95% in purity as determined by the HPLC method per the vendor (AnaSpec; Fremont, CA, USA). These peptides were dissolved in dimethyl sulfoxide to make 100 μM stock solutions, aliquoted, and stored at −80 °C until use. The fluorescent intensity and protein concentration of each peptide was determined as described below to calculate their specific activities (fluorescent intensity per mg of the conjugated peptide).
as §1

N2a cells [3] = assay: Immunoblotting of internalized Aβ1-40 in cell lysates; assay type: cell-based, mouse; settings: for effect on intracellular levels of full-length (~4-kDa) monomeric Aβ1-40: N2a cells, unlabeled Aβ1-40, 3 h, 10 μM AMF or leupeptin 100 μg/mL, SDS-PAGE and immunoblotting, normalized to α-tubulin
Experimental: To examine the integrity of Aβ1-40 taken up into neuronal cells, N2a cells were treated with the lysosomal enzyme inhibitor, leupeptin (100 μg/mL), unlabeled Aβ1-40 peptide in the presence or absence of AMF and for 3 h, and cell lysates were subjected to SDS-PAGE followed by immunoblotting with an anti-Aβ1-40 antibody (Figure 4A,B). We observed that the intracellular levels of the full-length (~4-kDa), monomeric Aβ1-40 was increased in the presence of AMF (Figure 4A,B). […] The internalized Aβ1-40 was almost completely degraded within 3 h when N2a cells were incubated with Aβ1-40 for 3 h followed by incubation in the Aβ1-40-free culture medium (washout) for an additional 3 h (Figure 4A,B).
An equal amount of protein samples (5 µg/lane) was separated on a 4–20% gradient tris-tricine gel (Bio-Rad, Hercules, CA, USA) per our published protocol. The gel was transferred to a nitrocellulose membrane (Bio-Rad) at 4 °C for 3 h. Blots were blocked with PBS containing 5% dry milk for 1 h and incubated in PBS solution containing an anti-Aβ antibody HJ2 (1:2000 dilution) or anti-α-tubulin antibody (1:5000 dilution, Sigma-Aldrich). After washing, blots were incubated with goat anti-mouse IgG conjugated with horseradish peroxidase (Bio-Rad, Hercules, CA, USA). The signal was visualized using the HRP chemiluminescent kit (ThermoFisher Scientific, Waltham, MA, USA), and photographic images were taken using a Syngene gel imaging system (Frederick, MD, USA).

immortalized astrocytes = assay: Aβ uptake assay in immortalized astrocytes; assay type: cell-based; settings: immortalized mouse astrocytes, 2 or 10 μM AMF, 200 nM TAMRA-Aβ1-40, 3 h
Experimental: (§2) Figure 7 Amentoflavone promotes the cellular uptake of Aβ peptide in glial cells. Mouse BV2 microglial cells (A) and immortalized astrocytes (B) were incubated with or without 2 or 10 μM amentoflavone (AMF) plus 200 nM TAMRA Aβ1-40 for three hours at 37 °C. The cells were harvested, and the fluorescent intensity of TAMRA was determined by fluorometry.
(§3) N2a cells were grown in Dulbecco’s Modified Eagle Medium (DMEM) supplemented with 10% fetal bovine serum, 100 U/mL penicillin and 100 µg/mL streptomycin at 37 °C in a humidified CO2 incubator (Thermo Fisher Scientific, Waltham, MA, USA). Cells at less than five passages were used in the experiments. The immortalized BV-2 murine microglial cell line was grown and maintained in DMEM containing antibiotics and 2% fetal bovine serum. The immortalized mouse astrocyte cell line was kindly gifted by David Holtzman at Washington University in St. Louis and maintained in DMEM containing antibiotics and 10% fetal bovine serum.
(§4) The Aβ uptake assay was performed as described, with modifications. […] The fluorescent intensity was measured at λEX = 490 and λEM = 520 for FAM, and λEX = 545 and λEM = 575 for TAMRA using a Biotek Synergy HT plate reader (Winooski, VT). Protein concentrations of the cell lysates were determined using a BCA assay kit (Sigma-Aldrich, St. Louis, MO, USA). […] Cellular uptake of Aβ was expressed as pmole/mg protein.

N2a cells [4] = assay: Aβ uptake assay with fluorescently labeled Aβ in N2a cells; assay type: cell-based, mouse; settings: 200 nM TAMRA-Aβ1-40, 10 μM AMF, one, three and six hours, TAMRA fluorescence liberated by trypsin digestion
BV2 microglial cells = assay: Aβ uptake assay in BV2 microglia; assay type: cell-based, mouse; settings: 200 nM TAMRA-Aβ1-40, 3 h, 37 °C, three independent experiments
Experimental: as §2, §3, §4

N2a cells [5] = assay: Lactate dehydrogenase (LDH) activity assay for cytotoxicity; assay type: cell-based, mouse; settings: 24 h
Experimental: The cytotoxicity of Aβ species in N2a cells was assessed using an LDH activity assay kit according to the manufacturer’s protocol (Sigma-Aldrich, St. Louis, MO, USA). Briefly, the Aβ uptake assay was performed as described above using FAM-Aβ1-40 or FAM-Aβ1-42. Twenty-four hours later, the incubation medium was transferred to a microcentrifuge tube and spun at 10,000× g for 5 min to remove cell debris. Triplicate samples of the assay medium were added with an equal volume of LDH master reaction mixture (50 µL/well) to each well of a 96-well plate. The optical density was measured at 37 °C for 30 min at a 5-min interval at a wavelength of 450 nm using a plate reader (Biotek, Winooski, VT, USA).

For fucoidan, the “effect on TAMRA-Aβ1-40 uptake without AMF (in words)” value (N2a cells [1]; 200 nM TAMRA-Aβ1-40, 3 h, no AMF) was “no effect” and the “TAMRA-Aβ1-40 uptake with inhibitor in the presence of AMF” value (N2a cells [1]; 100 μM fucoidan (30 min pretreatment) plus 10 μM AMF, 200 nM TAMRA-Aβ1-40, 3 h, mean ± S.E.M., three independent experiments) was 1.98 ± 0.17 pmole/mg protein.

For “TAMRA-Aβ1-40: Aβ1-40 conjugated with a fluorophore 5-carboxytetramethylrhodamine [reference compound]”, the “concentration of TAMRA-Aβ1-40 in the culture medium without AMF” value (N2a cells [2]; 200 nM TAMRA-Aβ1-40 alone (vehicle), after 3 h, mean ± S.E.M. (n = 4)) was 189 ± 0.6 nM.

In the case of “ApoE particles: astrocyte-secreted apolipoprotein E particles, inhibitor of LRP-1-mediated endocytosis”, the “inhibition of AMF-induced TAMRA-Aβ1-40 uptake” value (N2a cells [1]; 200 nM ApoE particles plus 10 μM AMF, 3 h) is reported as ~ 30% and the “decrease of cellular uptake of TAMRA-Aβ1-40” value (N2a cells [1]; 200 nM ApoE particles, no AMF, 3 h) is reported as ~ 75%.

heparin was tested, and the “effect on TAMRA-Aβ1-40 uptake with or without AMF (in words)” value (N2a cells [1]; 200 nM TAMRA-Aβ1-40, 3 h) was “in part attenuated”.

`O=c1cc(-c2ccc(O)cc2)oc2cc(O)cc(O)c12` [apigenin, reference compound] was tested, and the “effect on cellular uptake of TAMRA-Aβ1-40 (in words)” value (“effect … of TAMRA-Aβ1-40 (in words)” below) (N2a cells [2]; 3 h) was “little to no effect”.

`CC(=O)N[C@@H](CC(C)C)C(=O)N[C@@H](CC(C)C)C(=O)N[C@H](C=O)CCCNC(=N)N` [leupeptin, reference compound] was tested, and the “effect on AMF-induced promotion of Aβ1-40 uptake” value (N2a cells [2]; TAMRA-Aβ1-40, leupeptin plus 10 μM AMF, peptide remaining in the culture medium) was “did not influence” and the “effect on intracellular levels of full-length (~4-kDa) monomeric Aβ1-40” value (N2a cells [3]) was “significantly increased”.

With `O=C(O[C@@H]1Cc2c(O)cc(O)cc2O[C@@H]1c1cc(O)c(O)c(O)c1)c1cc(O)c(O)c(O)c1` [EGCG, (-)-epigallocatechin gallate, reference compound] the “effect … of TAMRA-Aβ1-40 (in words)” value (N2a cells [2]; 3 h) was “little to no effect”.

For `O=c1c(O)c(-c2ccc(O)c(O)c2)oc2cc(O)cc(O)c12` [quercetin, reference compound], the “effect … of TAMRA-Aβ1-40 (in words)” value (N2a cells [2]; 3 h) was “little to no effect”.

For `O=c1cc(-c2ccc(O)c(-c3c(O)cc(O)c4c(=O)cc(-c5ccc(O)cc5)oc34)c2)oc2cc(O)cc(O)c12` [AMF, amentoflavone], the “effect on cellular uptake of TAMRA-Aβ1-40 in astrocytes (in words)” value (immortalized astrocytes) was “significantly increased to a similar extent”, the “TAMRA-Aβ1-40 uptake with AMF, no inhibitor” value (N2a cells [1]; 10 μM AMF, 200 nM TAMRA-Aβ1-40, 3 h, mean ± S.E.M., three independent experiments) was 3.01 ± 0.22 pmole/mg protein and the “effect on intracellular accumulation of FAM-Aβ1-40” value (N2a cells [2]; 200 nM FAM-Aβ1-40, various concentrations of AMF, 3 h) was “increased”. The “cellular uptake of FAM-Aβ1-42 with AMF” value (N2a cells [2]; 200 nM FAM-Aβ1-42 plus 10 μM AMF, 3 h, mean ± S.E.M. (n = 4)) was 7.52 ± 0.50 pmole/mg protein, the “effect on internalization of the inverted peptide FAM-Aβ42-1” value (N2a cells [2]; 200 nM FAM-Aβ42-1, 10 μM AMF, 3 h) was “no effect” and the “increase in Aβ1-40 uptake” value (N2a cells [2]; 200 nM TAMRA-Aβ1-40, 1 μM compound, 3 h, 37 °C, mean ± S.E.M. (n = 4)) was 1.48 ± 0.05 fold. The “increase in Aβ1-40 uptake” value (N2a cells [2]; 200 nM TAMRA-Aβ1-40, 3 μM compound, 3 h, 37 °C, mean ± S.E.M. (n = 4)) was 2.48 ± 0.18 fold, the “increase in Aβ1-40 uptake” value (N2a cells [2]; 200 nM TAMRA-Aβ1-40, 10 μM compound, 3 h, 37 °C, mean ± S.E.M. (n = 4)) was 3.64 ± 1.12 fold and the “effect … of TAMRA-Aβ1-40 (in words)” value (N2a cells [2]; 3 h) was “most potent activity”. For the same molecule, the “concentration of TAMRA-Aβ1-40 in the culture medium with AMF” value (N2a cells [2]; 200 nM TAMRA-Aβ1-40 plus 10 μM AMF, after 3 h, mean ± S.E.M. (n = 4)) was 170 ± 1.6 nM, the “effect on TAMRA-Aβ1-40 binding to cell membrane” value (N2a cells [4]) was “significantly increased” and the “effect on intracellular levels of full-length (~4-kDa) monomeric Aβ1-40” value (N2a cells [3]) was “increased”. For the same molecule, the “increase in intracellular levels of TAMRA-Aβ1-40” value (BV2 microglial cells; 2 μM AMF) was 2.2 fold, the “increase in intracellular levels of TAMRA-Aβ1-40” value (BV2 microglial cells; 10 μM AMF) was 3.0 fold and the “effect on FAM-Aβ1-42-induced LDH release” value (N2a cells [5]; 200 nM FAM-Aβ1-42, co-treatment with 1, 3 and 10 μM AMF) was “significantly inhibited”.

In the case of `C=C1[C@@H](C)[C@H]2[C@H](Cc3ccccc3)NC(=O)[C@]23[C@H](OC(C)=O)/C=C/[C@@](C)(O)C(=O)[C@@H](C)C/C=C/[C@H]3[C@@H]1O` [cytochalasin D], the “effect on TAMRA-Aβ1-40 uptake with or without AMF (in words)” value (N2a cells [1]; 200 nM TAMRA-Aβ1-40, 3 h) is reported as “not blocked”.

With Aβ1-40: unlabeled human Aβ1-40 peptide the “time to almost complete degradation of internalized Aβ1-40” value (N2a cells [3]; N2a cells incubated with Aβ1-40 for 3 h, then Aβ1-40-free culture medium (washout), immunoblotting) was no more than 3 h.

With “FAM-Aβ1-40: 5-carboxyfluorescein-labeled Aβ1-40 [reference compound]” the “cytotoxicity by LDH release (in words)” value (N2a cells [5]; 200 nM peptide, in the absence or presence of AMF) was “did not cause cell death”.

“FAM-Aβ1-42: FAM-labeled Aβ1-42 [reference compound]” was tested, and the “cellular uptake of labeled peptide without AMF” value (N2a cells [2]; 200 nM peptide, DMEM with 0.1% BSA, 3 h, 37 °C, fluorometry of cell lysate after trypsin, mean ± S.E.M. (n = 4)) was 3.34 ± 0.84 pmole/mg protein.
